Measurements published in ChEMBL document CHEMBL1201862, “PubChem BioAssay data set” (2004).
The source made the active and inactive calls.

How the values were obtained:
[1] = intracellular Trypanosoma cruzi inhibitors in host cells – cell-based, plate reader, cherry-pick samples, set 3, dose response (AID 651818); type: functional;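 note: compounds incubated with infected cells for about four days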
[2] = molecular target: T1, Mannose-6-phosphate isomerase (Homo sapiens, UniProt P34949); test: MPI inhibition at elevated mannose 6-phosphate – biochemical, fluorescence intensity, high mannose 6-phosphate, primary screen (AID 1220)
T1 sequence (P34949 whole entry): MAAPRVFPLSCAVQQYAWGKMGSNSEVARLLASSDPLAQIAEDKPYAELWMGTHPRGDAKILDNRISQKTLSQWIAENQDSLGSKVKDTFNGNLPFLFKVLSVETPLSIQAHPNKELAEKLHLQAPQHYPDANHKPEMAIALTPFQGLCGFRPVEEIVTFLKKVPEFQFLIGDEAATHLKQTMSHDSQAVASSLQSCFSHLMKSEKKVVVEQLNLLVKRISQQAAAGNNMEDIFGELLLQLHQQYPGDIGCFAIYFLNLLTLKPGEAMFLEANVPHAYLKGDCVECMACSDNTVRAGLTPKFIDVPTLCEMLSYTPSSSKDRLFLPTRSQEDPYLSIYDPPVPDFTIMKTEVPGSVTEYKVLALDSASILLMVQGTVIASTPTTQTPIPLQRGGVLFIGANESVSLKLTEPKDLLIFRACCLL

[3] = molecular target: T2, Sentrin-specific protease 8 (Homo sapiens, UniProt Q96LD8); type: functional
T2 sequence (Q96LD8 whole entry): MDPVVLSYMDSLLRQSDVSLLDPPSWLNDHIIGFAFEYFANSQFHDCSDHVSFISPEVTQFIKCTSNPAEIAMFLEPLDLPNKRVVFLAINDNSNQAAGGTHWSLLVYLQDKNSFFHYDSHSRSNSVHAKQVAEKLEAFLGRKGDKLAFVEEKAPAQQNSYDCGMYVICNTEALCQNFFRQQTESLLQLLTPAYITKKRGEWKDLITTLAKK

[4] = molecular target: T2, Sentrin-specific protease 8; type: functional; remark: listed apart in the source
Beta-galactosidase = Beta-galactosidase (Escherichia coli, UniProt Q8VNN2); test: PubChem AID 485352; type: functional
[5] = molecular target: T3, Type-1 angiotensin II receptor (Homo sapiens, UniProt P30556); test: antagonism of angiotensin II type 1 receptor – cell-based, uHTS hits, selectivity assay for APJ receptor antagonist project, dose response (AID 463214); type: functional;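 note: antagonist potency against angiotensin II stimulated AT1 response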
T3 sequence (P30556 whole entry): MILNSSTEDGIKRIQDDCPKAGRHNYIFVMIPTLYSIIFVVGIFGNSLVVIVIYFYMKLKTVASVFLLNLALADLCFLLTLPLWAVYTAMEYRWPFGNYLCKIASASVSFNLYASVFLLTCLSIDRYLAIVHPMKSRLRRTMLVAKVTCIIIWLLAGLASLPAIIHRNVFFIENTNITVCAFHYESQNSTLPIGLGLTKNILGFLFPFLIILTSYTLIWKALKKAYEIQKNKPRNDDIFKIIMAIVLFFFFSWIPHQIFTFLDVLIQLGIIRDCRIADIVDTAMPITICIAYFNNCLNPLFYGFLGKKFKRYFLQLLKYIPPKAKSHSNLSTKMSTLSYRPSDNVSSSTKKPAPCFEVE

[6] = molecular target: SWI/SNF-related matrix-associated actin-dependent regulator of chromatin subfamily A member 2 (Homo sapiens, UniProt P51531); test: Luminescence-based cell-based high throughput dose response assay to identify activators of the function of SWI/SNF related, matrix associated, actin dependent regulator of chromatin, subfamily a, member 2 (SMARCA2, BRM).; type: functional
SWI/SNF-related matrix-associated actin-dependent regulator of chromatin subfamily A member 2, sequence (P51531 whole entry): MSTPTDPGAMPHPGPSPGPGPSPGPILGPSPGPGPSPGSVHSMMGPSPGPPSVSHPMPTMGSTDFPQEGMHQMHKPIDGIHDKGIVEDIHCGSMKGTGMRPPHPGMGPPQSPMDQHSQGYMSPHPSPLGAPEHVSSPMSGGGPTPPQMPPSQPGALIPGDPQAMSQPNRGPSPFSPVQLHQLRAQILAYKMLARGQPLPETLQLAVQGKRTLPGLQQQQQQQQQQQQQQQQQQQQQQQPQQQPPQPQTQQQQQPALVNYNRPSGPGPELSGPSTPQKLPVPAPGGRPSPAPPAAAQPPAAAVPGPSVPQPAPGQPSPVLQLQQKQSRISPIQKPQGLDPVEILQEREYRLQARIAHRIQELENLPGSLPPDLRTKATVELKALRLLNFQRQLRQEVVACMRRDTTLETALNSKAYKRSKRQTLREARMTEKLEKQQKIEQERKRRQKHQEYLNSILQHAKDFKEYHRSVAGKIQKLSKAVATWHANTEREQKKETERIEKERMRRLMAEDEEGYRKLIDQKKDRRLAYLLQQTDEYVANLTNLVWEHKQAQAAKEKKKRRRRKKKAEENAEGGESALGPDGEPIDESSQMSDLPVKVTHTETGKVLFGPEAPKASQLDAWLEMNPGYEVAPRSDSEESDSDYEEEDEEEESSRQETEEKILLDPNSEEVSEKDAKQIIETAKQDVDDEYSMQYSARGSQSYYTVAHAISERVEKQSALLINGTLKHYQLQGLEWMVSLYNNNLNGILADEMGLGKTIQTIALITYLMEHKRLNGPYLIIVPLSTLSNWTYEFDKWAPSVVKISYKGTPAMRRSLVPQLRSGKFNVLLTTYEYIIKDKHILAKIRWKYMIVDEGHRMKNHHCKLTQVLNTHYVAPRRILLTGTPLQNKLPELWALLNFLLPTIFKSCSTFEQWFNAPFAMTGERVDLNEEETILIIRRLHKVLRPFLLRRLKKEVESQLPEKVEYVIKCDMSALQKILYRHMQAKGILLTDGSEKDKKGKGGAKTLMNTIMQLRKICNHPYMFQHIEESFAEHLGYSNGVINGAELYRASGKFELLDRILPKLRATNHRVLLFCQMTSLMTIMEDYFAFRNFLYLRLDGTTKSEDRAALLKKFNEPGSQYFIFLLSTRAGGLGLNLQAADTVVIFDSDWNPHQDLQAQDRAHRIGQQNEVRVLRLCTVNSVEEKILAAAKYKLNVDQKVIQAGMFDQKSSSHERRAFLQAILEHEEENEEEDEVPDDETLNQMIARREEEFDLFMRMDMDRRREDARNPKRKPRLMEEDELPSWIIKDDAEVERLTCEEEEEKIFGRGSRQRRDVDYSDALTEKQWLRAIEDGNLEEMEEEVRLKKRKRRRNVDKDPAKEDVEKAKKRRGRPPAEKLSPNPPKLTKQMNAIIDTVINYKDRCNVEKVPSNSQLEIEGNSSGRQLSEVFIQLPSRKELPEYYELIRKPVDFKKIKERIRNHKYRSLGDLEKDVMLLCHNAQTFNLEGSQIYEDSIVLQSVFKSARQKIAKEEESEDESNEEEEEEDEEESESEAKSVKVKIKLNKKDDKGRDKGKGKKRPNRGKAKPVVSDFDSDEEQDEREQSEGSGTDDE

[7] = Counterscreen for activators of the function of SWI/SNF related, matrix associated, actin dependent regulator of chromatin, subfamily a, member 2 (SMARCA2, BRM): Luminescence-based cell-based high throughput dose response assay to identify non-selective compounds using the VP16 reporter assay.; type: functional
[8] = molecular target: T4, Small ubiquitin-related modifier 1 (Homo sapiens, UniProt P63165); test: SUMO1 protein interaction blockers, potency – biochemical, fluorescence polarization, uHTS hits, dose response (AID 624382); type: functional; details: read-out: IC50_Mean
T4 sequence (P63165 whole entry): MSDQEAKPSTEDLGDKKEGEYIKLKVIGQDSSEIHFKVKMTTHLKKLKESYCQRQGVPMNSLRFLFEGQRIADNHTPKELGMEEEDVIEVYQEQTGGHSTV

[9] = molecular target: T4, Small ubiquitin-related modifier 1; test: SUMO1 protein-protein binding blockers, potency – biochemical, FRET, dose response (AID 624383); type: functional; details: read-out: IC50_Mean
[10] = system: Streptococcus sp. 'group A'; test: Streptococcus pyogenes SK(-)GAS viability under kanamycin – luminescence, BacTiterGlo, confirmation, counter-screen for streptokinase expression inhibitor project, dose response (AID 1900); type: functional, organism-based
Streptokinase A = molecular target: T5, Streptokinase A (Streptococcus pyogenes serotype M1, UniProt P10520); test: viability-normalized secreted streptokinase activity reduction – plasminogen activation absorbance, OD405, dose response (AID 1914); type: functional, Streptococcus pyogenes M1 GAS;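 note: secreted streptokinase activity via plasminogen activation per viability signal from cell pellet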
T5 sequence (P10520 whole entry): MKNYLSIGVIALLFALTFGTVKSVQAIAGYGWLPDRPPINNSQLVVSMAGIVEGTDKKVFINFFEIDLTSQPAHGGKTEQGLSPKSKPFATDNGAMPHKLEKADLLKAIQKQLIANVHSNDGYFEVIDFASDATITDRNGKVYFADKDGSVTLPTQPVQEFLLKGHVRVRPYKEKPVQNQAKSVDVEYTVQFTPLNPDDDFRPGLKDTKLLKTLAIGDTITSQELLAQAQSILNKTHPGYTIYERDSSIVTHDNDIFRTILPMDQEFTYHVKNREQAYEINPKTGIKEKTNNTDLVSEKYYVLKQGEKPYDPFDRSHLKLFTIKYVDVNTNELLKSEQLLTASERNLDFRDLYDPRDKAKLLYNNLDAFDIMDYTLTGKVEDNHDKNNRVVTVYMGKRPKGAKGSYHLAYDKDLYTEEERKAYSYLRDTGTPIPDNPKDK

Streptococcus = test: GAS UMAA2166 growth inhibition – luminescence, BacTiterGlo, counter-screen for streptokinase expression inhibitor project, dose response (AID 1915); type: functional, organism-based;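 note: potency for reduction of bacterial viability or growth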
HEK293 = test: EBV LMP1 TES2 canonical NF-kB signalling blockers – cell-based, HEK293, luciferase, cherry-pick, dose response (AID 588343); type: functional; details: Homo sapiens
Fatty acid synthase = Fatty acid synthase (Homo sapiens, UniProt P49327); test: inhibition of human FAS-TE enzyme activity – biochemical, kinetic fluorescence intensity, dose response (AID 624326); type: functional;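 note: rate of fluorescence rise from hydrolysis of a fluorogenic O-methyl fluorescein ester substrate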
Fatty acid synthase, sequence (P49327 whole entry): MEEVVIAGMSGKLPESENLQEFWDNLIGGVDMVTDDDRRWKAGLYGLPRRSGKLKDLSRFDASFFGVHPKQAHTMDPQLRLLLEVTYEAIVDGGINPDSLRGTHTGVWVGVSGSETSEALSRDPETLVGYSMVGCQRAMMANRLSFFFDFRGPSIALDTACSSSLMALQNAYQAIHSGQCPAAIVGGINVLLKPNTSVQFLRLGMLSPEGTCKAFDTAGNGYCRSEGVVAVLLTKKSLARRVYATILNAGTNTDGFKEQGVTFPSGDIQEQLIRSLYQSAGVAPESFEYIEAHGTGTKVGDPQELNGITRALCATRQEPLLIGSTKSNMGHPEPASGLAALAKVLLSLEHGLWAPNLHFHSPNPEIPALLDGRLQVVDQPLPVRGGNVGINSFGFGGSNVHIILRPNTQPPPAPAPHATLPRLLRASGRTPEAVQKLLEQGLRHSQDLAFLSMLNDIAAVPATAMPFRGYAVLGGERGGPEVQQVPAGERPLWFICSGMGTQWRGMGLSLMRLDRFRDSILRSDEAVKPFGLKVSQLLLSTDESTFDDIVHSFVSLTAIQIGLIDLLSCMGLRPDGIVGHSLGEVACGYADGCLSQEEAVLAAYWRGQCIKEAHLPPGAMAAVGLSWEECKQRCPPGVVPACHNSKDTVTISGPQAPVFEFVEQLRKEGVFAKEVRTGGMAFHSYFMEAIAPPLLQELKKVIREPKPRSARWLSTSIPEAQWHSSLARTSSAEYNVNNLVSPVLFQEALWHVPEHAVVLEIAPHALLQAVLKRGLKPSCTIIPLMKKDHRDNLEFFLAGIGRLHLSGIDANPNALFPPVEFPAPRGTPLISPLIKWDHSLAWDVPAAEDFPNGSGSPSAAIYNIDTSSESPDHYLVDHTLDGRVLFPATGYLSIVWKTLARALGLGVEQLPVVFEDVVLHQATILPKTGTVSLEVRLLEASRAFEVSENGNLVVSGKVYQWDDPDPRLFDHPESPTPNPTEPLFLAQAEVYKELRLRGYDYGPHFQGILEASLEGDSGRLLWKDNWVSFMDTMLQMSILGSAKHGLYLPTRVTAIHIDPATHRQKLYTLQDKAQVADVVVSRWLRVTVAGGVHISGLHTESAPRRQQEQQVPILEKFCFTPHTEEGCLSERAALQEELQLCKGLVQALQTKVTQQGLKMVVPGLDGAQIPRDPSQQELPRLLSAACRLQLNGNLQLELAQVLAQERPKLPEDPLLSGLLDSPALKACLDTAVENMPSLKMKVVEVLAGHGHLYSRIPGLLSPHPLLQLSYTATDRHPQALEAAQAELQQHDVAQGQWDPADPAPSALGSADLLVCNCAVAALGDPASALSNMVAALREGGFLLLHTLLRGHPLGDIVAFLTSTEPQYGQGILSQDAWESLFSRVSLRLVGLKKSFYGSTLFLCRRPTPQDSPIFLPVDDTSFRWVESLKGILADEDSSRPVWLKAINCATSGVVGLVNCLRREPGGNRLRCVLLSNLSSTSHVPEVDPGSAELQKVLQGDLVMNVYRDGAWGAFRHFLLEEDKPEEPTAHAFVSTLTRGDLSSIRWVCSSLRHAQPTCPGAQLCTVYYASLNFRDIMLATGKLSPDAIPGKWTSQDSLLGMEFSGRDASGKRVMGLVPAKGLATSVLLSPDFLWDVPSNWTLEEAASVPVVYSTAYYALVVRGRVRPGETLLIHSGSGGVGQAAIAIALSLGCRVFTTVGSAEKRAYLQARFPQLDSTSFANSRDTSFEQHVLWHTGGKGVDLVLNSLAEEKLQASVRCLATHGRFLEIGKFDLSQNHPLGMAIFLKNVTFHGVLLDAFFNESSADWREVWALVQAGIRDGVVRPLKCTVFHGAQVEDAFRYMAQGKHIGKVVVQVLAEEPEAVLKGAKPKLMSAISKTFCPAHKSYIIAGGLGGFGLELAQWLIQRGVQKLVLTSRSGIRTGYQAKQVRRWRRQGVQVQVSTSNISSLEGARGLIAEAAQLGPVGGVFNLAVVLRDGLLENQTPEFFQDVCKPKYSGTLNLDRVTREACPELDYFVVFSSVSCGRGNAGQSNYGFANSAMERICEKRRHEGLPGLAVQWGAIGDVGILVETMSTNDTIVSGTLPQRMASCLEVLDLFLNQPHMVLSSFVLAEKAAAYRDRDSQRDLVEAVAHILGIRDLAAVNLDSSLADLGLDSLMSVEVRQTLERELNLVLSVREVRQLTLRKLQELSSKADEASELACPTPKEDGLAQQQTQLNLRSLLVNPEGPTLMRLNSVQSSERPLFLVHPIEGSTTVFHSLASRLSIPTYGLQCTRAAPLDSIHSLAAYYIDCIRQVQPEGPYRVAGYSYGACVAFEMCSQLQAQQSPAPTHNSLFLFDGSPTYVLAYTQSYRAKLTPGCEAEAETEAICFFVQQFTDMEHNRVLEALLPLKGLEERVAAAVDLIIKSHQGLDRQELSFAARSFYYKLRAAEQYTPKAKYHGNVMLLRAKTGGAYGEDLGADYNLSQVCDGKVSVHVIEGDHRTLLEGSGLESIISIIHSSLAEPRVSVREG

[11] = Luminescence Cell-Based Dose Retest to Confirm Inhibitors of Cancer Stem Cells. [Related pubchem assays (depositor defined):AID2717, AID2721]; type: functional; details: Homo sapiens
Nonstructural protein 1 = Nonstructural protein 1 (Influenza A virus, UniProt Q194T2); type: functional, Influenza A virus (A/California/07/2009(H1N1))
Nonstructural protein 1, sequence (Q194T2 whole entry): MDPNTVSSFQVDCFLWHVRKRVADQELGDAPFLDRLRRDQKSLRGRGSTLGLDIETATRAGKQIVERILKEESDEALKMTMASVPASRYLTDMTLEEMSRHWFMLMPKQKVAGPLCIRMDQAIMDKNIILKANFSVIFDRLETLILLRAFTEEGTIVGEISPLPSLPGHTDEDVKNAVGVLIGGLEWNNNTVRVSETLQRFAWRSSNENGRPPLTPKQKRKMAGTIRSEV

[12] = molecular target: T6, Heat shock factor protein 1 (Mus musculus, UniProt P38532); test: enhancement of HSF1-driven luciferase signal – cell-based, NIH3T3, luminescence, dose retest, confirmation (AID 435004); type: functional;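 note: stress induced by proteasome inhibitor MG132 added 30 min after compound; luciferase reporter driven by HSF1 response element in NIH3T3 cells; actives raise luminescence as potentiators of the MG132 stress response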
T6 sequence (P38532 whole entry): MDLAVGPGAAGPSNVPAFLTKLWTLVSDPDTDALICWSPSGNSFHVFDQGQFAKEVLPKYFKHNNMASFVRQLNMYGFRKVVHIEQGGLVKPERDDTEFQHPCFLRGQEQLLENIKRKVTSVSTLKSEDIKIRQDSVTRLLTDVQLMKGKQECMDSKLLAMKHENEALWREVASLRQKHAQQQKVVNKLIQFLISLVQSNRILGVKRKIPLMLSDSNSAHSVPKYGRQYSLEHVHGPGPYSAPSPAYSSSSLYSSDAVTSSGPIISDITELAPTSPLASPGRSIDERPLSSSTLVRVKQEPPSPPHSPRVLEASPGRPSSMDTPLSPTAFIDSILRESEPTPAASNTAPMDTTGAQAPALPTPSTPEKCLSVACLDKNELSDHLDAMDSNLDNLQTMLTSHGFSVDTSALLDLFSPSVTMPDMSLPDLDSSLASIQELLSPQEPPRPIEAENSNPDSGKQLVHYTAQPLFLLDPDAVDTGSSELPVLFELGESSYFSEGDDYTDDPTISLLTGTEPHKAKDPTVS

Vero = test: viability of Vero cells under compound – cytotoxicity control for flavivirus capping enzyme inhibitors (AID 588742); type: functional; details: Chlorocebus sabaeus
[13] = molecular target: T7, DNA repair protein RAD52 homolog (Homo sapiens, UniProt P43351); type: functional, biochemical
T7 sequence (P43351 whole entry): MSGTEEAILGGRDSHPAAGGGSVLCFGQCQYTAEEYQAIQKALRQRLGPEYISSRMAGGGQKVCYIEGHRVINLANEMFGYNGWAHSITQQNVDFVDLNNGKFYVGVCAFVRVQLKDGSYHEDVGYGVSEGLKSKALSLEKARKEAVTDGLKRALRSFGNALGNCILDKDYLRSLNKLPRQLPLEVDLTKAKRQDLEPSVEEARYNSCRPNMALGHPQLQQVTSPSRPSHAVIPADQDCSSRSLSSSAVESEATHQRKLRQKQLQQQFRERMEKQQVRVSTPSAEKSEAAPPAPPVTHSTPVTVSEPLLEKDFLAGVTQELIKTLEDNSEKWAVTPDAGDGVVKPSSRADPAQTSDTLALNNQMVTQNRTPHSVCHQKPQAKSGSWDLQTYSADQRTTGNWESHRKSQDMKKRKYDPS

[14] = Fluorescence-based cell-based high throughput dose response assay for inhibitors of the interaction of nucleotide-binding oligomerization domain containing 2 (NOD2) and the receptor-interacting serine-threonine kinase 2 (RIPK2).; type: functional; details: Homo sapiens
Paired box protein Pax-8 = Paired box protein Pax-8 (Homo sapiens, UniProt Q06710); test: PAX8 transcriptional activity inhibition in RMG-I – RMG-I cells, luciferase, cherry-pick, dose response (AID 687027); type: functional, cell-based;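 note: luciferase reporter driven by Pax8 target thyroperoxidase promoter measured by SteadyGlo luminescence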
Paired box protein Pax-8, sequence (Q06710 whole entry): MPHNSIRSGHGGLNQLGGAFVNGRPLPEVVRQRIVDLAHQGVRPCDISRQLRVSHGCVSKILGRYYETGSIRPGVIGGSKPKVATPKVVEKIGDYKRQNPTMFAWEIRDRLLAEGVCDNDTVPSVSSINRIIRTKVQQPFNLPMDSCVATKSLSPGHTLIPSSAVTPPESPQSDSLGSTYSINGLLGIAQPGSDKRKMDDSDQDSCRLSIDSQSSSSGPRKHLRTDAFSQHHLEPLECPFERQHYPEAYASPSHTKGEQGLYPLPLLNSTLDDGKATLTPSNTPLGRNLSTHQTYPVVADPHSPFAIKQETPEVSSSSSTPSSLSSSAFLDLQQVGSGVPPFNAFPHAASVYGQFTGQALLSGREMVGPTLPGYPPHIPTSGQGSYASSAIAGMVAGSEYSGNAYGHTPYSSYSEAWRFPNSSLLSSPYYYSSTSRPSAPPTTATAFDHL

[15] = molecular target: T8, Corticotropin-releasing factor receptor 2/Corticotropin-releasing factor-binding protein (Homo sapiens, UniProt P24387+Q13324); test: Dose Response confirmation of uHTS hits for small molecule antagonists of the CRF-binding protein and CRF-R2 receptor complex.; type: functional; details: read-out: IC50_Mean
T8 sequence (Q13324 whole entry): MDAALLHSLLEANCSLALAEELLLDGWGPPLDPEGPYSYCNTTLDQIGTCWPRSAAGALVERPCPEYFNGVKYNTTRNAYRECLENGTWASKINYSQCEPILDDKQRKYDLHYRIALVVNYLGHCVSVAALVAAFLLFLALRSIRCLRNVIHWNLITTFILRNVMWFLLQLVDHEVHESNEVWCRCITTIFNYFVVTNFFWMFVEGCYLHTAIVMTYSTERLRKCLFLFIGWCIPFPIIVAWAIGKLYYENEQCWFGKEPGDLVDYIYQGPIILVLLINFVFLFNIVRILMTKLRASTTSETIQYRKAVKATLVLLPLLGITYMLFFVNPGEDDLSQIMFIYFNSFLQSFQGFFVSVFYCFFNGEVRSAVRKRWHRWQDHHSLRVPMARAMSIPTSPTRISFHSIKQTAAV
T8 sequence (P24387 whole entry): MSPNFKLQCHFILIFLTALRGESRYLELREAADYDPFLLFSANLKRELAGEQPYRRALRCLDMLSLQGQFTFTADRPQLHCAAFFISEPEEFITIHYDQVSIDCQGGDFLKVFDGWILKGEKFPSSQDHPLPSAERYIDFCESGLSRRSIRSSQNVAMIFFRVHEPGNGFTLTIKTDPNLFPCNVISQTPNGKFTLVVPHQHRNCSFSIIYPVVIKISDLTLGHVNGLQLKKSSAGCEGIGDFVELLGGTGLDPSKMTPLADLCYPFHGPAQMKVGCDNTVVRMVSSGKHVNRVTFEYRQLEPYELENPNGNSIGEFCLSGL

[16] = molecular target: T8, Corticotropin-releasing factor receptor 2/Corticotropin-releasing factor-binding protein; test: activators of CRF receptor 2 with binding protein – uHTS hits, confirmation (AID 602473); type: functional; details: read-out: EC50_Mean

Compound: C[C@@H]1CN([C@@H](C)CO)C(=O)Cc2cc(NC(=O)Nc3ccccc3)ccc2O[C@@H]1CN(C)Cc1ccc(Cl)c(Cl)c1
- AC50 [1]: 3.92 µM (active)

Compound: CN(C)/C=N/c1c(Br)cc(Br)c2nonc12
- IC50 [2]: > 50 µM (not active)
- IC50 [3]: 21.3 µM (active)
- IC50 [4]: 10.2 µM (active)

Compound: COc1ccc(C(=O)CNc2ccccc2CO)cc1
- EC50 (Beta-galactosidase): > 40 µM (inactive)
- IC50 [5]: 26.1 µM (not active)

Compound: CCN(CC)CCNC(=O)C(Cl)=C1C(Cl)=C(Cl)C(Cl)=C1Cl
- EC50 [6]: > 91.2 µM (inactive)
- EC50 [7]: > 91.2 µM (inactive)

Compound: COc1ccc(C(=O)Nc2ccccc2C(=O)NC(Cc2ccc(O)cc2)C(=O)NNC(=O)c2ccc(C)cc2)cc1 (centres undefined)
- IC50 [8]: > 66.6 µM (inactive)
- IC50 [9]: 2.32 µM (active)

Compound: C[C@H](CO)N1C[C@H](C)[C@H](CN(C)Cc2ccc(C(=O)Nc3ccccc3N)cc2)Oc2c(NS(=O)(=O)c3ccccc3)cccc2C1=O
- AC50 [1]: 2.19 µM (active)

Compound: NS(=O)(=O)c1ccc(CCNC(=O)COC(=O)c2ccc([N+](=O)[O-])o2)cc1
- IC50 [3]: 6.46 µM (active)
- IC50 [4]: 9.2 µM (active)

Compound: C[C@H](CO)N1C[C@H](C)[C@H](CN(C)Cc2ccc(-c3ccccc3)cc2)Oc2ccc(NC(=O)Nc3ccc(C(F)(F)F)cc3)cc2CC1=O
- AC50 [1]: 2.21 µM (active)

Compound: Cc1cc(NC(=O)c2ccco2)ncc1NC(=O)Cc1ccccc1
- EC50 [6]: > 91.2 µM (inactive)
- EC50 [7]: > 91.2 µM (inactive)

Compound: CCCCCCCCOC(=O)/C=C/c1c(C)nc(O)nc1O
- EC50 [10]: 1.76 µM (active)
- EC50 (Streptokinase A): 2.38 µM (active)
- EC50 (Streptococcus): > 150 µM (not active)
- AC50 (HEK293): 2.59 µM (active)

Compound: COc1ccc(NC(=O)CC2C(=O)N(C)C(=S)N2Cc2cccs2)cc1 (centres undefined)
- IC50 (Fatty acid synthase): 15.8 µM (active)

Compound: C[C@H](CO)N1C[C@H](C)[C@@H](CN(C)CC2CCCCC2)Oc2c(NC(=O)Nc3ccc(C(F)(F)F)cc3)cccc2C1=O
- AC50 [1]: 3.48 µM (active)

Compound: O=C/C=C/c1c(-c2ccccc2)cc2oc3ccccc3cc1-2
- AC50 [11]: 10.4 µM (active)
- IC50 (Nonstructural protein 1): 37.1 µM (active)
- EC50 [12]: > 260 µM (inactive)
- CC50 (Vero): > 40 µM (active)

Compound: COc1ccc2sc3cccc(NCCN(C)C)c3c(=O)c2c1
- EC50 [6]: > 10.1 µM (inactive)
- EC50 [7]: > 91.2 µM (inactive)
- AC50 [13]: 0.683 µM (active)

Compound: O=c1ccc2ccccc2c2ccccc12
- IC50 [14]: 6.6 µM (active)
- AC50 (Paired box protein Pax-8): 6.07 µM (active)

Compound: NC(Cc1ccc(O)cc1)C(=O)NN=Cc1ccc(N(CCCl)CCCl)cc1 (centres undefined)
- AC50 (HEK293): 31.4 µM (active)
- IC50 [15]: > 47.1 µM (inactive)
- EC50 [16]: > 53 µM (inactive)
